According to ChEMBL document CHEMBL1201862, “PubChem BioAssay data set” (2004):
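Assay format: 96-well plates, 48-hour exposure. GI50 is the concentration that inhibits growth by half.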 Calls of active or inactive are those of the source. Rule as the data show it: active = GI50 up to about 1.1 µM and inactive = higher.

Key:
Assay in all cases: NCI anticancer screen, dose series, 48 h
Hs-578T = tested on: Hs-578T
A498 = tested on: A498
SF-295 = tested on: SF-295
SK-OV-3 = tested on: SK-OV-3
TK-10 = tested on: TK-10
IGROV-1 = tested on: IGROV-1
LOX IMVI = tested on: LOX IMVI
DU-145 = tested on: DU-145
OVCAR-3 = tested on: OVCAR-3
NCI-H226 = tested on: NCI-H226
NCI-H522 = tested on: NCI-H522
UACC-257 = tested on: UACC-257
M14 = tested on: M14
OVCAR-5 = tested on: OVCAR-5
Malme-3M = tested on: Malme-3M
CAKI-1 = tested on: CAKI-1
HCT-116 = tested on: HCT-116
HOP-62 = tested on: HOP-62
OVCAR-4 = tested on: OVCAR-4
MDA-N = tested on: MDA-N

| SMILES | GI50 (Hs-578T) | GI50 (A498) | GI50 (SF-295) | GI50 (SK-OV-3) | GI50 (TK-10) | GI50 (IGROV-1) | GI50 (LOX IMVI) | GI50 (DU-145) | GI50 (OVCAR-3) | GI50 (NCI-H226) | GI50 (NCI-H522) | GI50 (UACC-257) | GI50 (M14) | GI50 (OVCAR-5) | GI50 (Malme-3M) | GI50 (CAKI-1) | GI50 (HCT-116) | GI50 (HOP-62) | GI50 (OVCAR-4) | GI50 (MDA-N) |
| --- | --- | --- | --- | --- | --- | --- | --- | --- | --- | --- | --- | --- | --- | --- | --- | --- | --- | --- | --- | --- |
| CN(C)c1ccc(/C(F)=C(F)/C(F)=C(F)/C(F)=C(\F)c2ccc(Br)cc2)cc1 | 17.2 µM (inactive) | 16.7 µM (inactive) | 6.98 µM (inactive) | 30.1 µM (inactive) | > 75.5 µM (inactive) | 27.6 µM (inactive) | 19.8 µM (inactive) | 19.4 µM (inactive) | 9.38 µM (inactive) | 50 µM (inactive) | 7460 nM (inactive) | > 74.1 µM (inactive) | 16.1 µM (inactive) | 23.8 µM (inactive) | 9290 nM (inactive) | 18.7 µM (inactive) | 5.33 µM (inactive) | 37.2 µM (inactive) | 23.9 µM (inactive) | 2.43 µM (inactive) |
| COc1ccc2c(c1)C1=NCCN(CCO)c3ccc([N+](=O)[O-])c(c31)N2 | 0.693 µM (active) | 0.798 µM (active) | 0.454 µM (active) | 0.574 µM (active) | 0.63 µM (active) | 0.519 µM (active) | 0.127 µM (active) | 1.02 µM (active) | 0.785 µM (active) | 0.331 µM (active) | 264 nM (active) | 0.581 µM (active) | 0.407 µM (active) | 0.728 µM (active) | 350 nM (active) | 0.366 µM (active) | 0.232 µM (active) | 0.462 µM (active) | 0.54 µM (active) | 0.431 µM (active) |
| COc1ccc(/C=C(/C(=O)c2ccc(Cl)cc2)N2C=CC=CC2=C(C#N)C#N)cc1OC | 1.66 µM (inactive) | 14.9 µM (inactive) | 28.5 µM (inactive) | 24.4 µM (inactive) | 6.32 µM (inactive) | 5.09 µM (inactive) | 3.39 µM (inactive) | 13.7 µM (inactive) | 3.72 µM (inactive) | 17.8 µM (inactive) | 243 nM (active) | 6 µM (inactive) | 3.7 µM (inactive) | 16.2 µM (inactive) | 914 nM (active) | 1.31 µM (inactive) | 2.06 µM (inactive) | 20.5 µM (inactive) | 6.58 µM (inactive) | 4.55 µM (inactive) |
| CC1ON2CCCC2[C@H]1C(=O)N1C2CC3CCC2(CS1(=O)=O)C3(C)C (stereo not given in full) | > 100 µM (inactive) | > 100 µM (inactive) | > 100 µM (inactive) | > 100 µM (inactive) | > 100 µM (inactive) | > 100 µM (inactive) | > 100 µM (inactive) | > 100 µM (inactive) | > 100 µM (inactive) | > 100 µM (inactive) | > 100000 nM (inactive) | > 100 µM (inactive) | > 100 µM (inactive) | > 100 µM (inactive) | > 100000 nM (inactive) | > 100 µM (inactive) | > 100 µM (inactive) | > 100 µM (inactive) | > 100 µM (inactive) | > 100 µM (inactive) |
| C[C@H](N)C(=O)N[C@@H]1[C@H]2C(=C(O)C[C@@H](O)[C@@H]2O)C(=O)O[C@]1(C)C(Cl)Cl [BACTOBOLIN] | 0.125 µM (active) | 0.329 µM (active) | 0.18 µM (active) | 0.271 µM (active) | 0.356 µM (active) | 0.361 µM (active) | 0.0946 µM (active) | 0.182 µM (active) | 0.34 µM (active) | 0.195 µM (active) | 160 nM (active) | 0.378 µM (active) | 0.128 µM (active) | 0.604 µM (active) | 278 nM (active) | 0.166 µM (active) | 0.145 µM (active) | 0.152 µM (active) | 0.133 µM (active) | 0.105 µM (active) |
